# Columns and labels:
# [1] = test system: C57BL/6 mice; experiment: Recall proliferation and cytokine (ELISA) responses of LN and spleen cells from treated MOG35-55/CFA-immunized mice; details: in vivo treatment over a 10-day period; 72 h restimulation
# [2] = test system: CCRL2 KO mice; experiment: EAE induced by active immunization in CCRL2 KO mice; assay type: in vivo, mouse
# [3] = test system: Cytochrome p450 1A2; details: cited from earlier work
# [4] = test system: Lassa virus binding/entry; details: Cell-based; ref PubChem, 2014b; cited from earlier work
# [5] = biological target: CXCR5 (Homo sapiens, UniProt P32302); experiment: Transwell chemotaxis of CXCR5+ NC-37 cells to CXCL13
# [6] = biological target: T1, huCMKLR1 (Homo sapiens, UniProt Q99788); experiment: Transwell chemotaxis of huCMKLR1/L1.2 transfectants to chemerin
# T1 sequence (Q99788 1-373): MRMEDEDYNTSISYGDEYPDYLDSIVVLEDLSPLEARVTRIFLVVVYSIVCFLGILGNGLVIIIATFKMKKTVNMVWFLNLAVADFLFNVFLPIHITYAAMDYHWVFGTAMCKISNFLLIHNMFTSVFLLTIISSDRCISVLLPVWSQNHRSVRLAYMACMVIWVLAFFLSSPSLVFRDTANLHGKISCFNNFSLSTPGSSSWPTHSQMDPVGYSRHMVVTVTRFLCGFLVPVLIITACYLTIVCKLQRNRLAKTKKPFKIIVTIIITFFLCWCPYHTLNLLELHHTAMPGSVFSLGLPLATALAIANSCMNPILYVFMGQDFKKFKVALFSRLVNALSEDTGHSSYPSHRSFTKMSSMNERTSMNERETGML
# [7] = biological target: Tyrosyl-DNA phosphodiesterase 1 + camptothecin; set-up: method as in PubChem, 2014a; details: Cell-based (process); ref PubChem, 2014a; cited from earlier work
# [8] = test system: p53 mutants; set-up: method as in PubChem, 2014a; details: Cell-based (process); ref PubChem, 2014a; cited from earlier work
# [9] = biological target: CXCR4 (Homo sapiens, UniProt P61073); experiment: Transwell chemotaxis of CXCR4+ U937 cells to CXCL12
# [10] = biological target: CXCR7 (Homo sapiens, UniProt P25106); experiment: β-arrestin2 (β-ARR2) assay, CXCR7/CHO cells, CXCL12-stimulated; details: 3 µM
# [11] = test system: Cytochrome p450 2C19; details: cited from earlier work
# [12] = biological target: Aldehyde dehydrogenase 1 family, member A1 (ALDH1A1); set-up: method as in PubChem, 2014b; ref 22; details: Purified enzyme; ref PubChem, 2014b; cited from earlier work
# [13] = biological target: CCR9 (Homo sapiens, UniProt P51686); experiment: Transwell chemotaxis of CCR9+ MOLT-4 cells to CCL25
# [14] = test system: Acetylcholine muscarinic M1 receptor; set-up: method as in PubChem, 2014a; ref 25; details: Cell-based (GPCR); Tested up to 35 µM; ref PubChem, 2014a; cited from earlier work
# [15] = biological target: T1, huCMKLR1; experiment: β-arrestin2 (β-ARR2) enzymatic complementation assay, CMKLR1/CHO cells; assay type: cell-based; set-up: host or cells: CHO
# From the text: The engagement of a chemoattractant receptor by its cognate ligand stimulates the recruitment of β-arrestin to the carboxyl-terminus of the receptor, an event that results in receptor internalization and termination of G protein-mediated signaling. […] To test this, we used an enzymatic complementation assay (the β-ARR2 assay), whereby the complementary fragments from the β-gal active site are fused to the carboxyl-terminus of CMKLR1 and β-arrestin2. The special association of these molecules leads to enzyme activity, which is detected by a chemiluminescent substrate.
# Chain of CXCR5 (P32302 whole entry): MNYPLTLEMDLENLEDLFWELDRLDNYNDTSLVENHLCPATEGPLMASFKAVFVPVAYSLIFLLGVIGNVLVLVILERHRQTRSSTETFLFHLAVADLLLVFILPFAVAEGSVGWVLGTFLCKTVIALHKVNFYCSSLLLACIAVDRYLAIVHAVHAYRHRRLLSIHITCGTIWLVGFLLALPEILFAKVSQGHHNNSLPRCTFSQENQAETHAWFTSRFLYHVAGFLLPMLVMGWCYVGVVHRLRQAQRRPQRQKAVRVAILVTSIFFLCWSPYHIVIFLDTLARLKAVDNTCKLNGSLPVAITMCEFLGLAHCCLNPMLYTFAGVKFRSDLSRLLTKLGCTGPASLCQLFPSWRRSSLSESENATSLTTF
# Chain of CXCR4 (P61073 whole entry): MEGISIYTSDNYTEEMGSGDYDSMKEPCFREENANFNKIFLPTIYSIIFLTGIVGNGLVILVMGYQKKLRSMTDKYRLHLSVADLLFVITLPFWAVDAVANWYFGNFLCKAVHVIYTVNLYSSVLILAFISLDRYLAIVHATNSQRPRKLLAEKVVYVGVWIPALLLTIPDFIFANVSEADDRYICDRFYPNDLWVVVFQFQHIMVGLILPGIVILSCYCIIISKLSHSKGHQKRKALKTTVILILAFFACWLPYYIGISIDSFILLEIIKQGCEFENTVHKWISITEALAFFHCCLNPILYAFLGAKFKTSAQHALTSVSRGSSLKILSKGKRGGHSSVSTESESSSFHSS
# Chain of CCR9 (P51686 whole entry): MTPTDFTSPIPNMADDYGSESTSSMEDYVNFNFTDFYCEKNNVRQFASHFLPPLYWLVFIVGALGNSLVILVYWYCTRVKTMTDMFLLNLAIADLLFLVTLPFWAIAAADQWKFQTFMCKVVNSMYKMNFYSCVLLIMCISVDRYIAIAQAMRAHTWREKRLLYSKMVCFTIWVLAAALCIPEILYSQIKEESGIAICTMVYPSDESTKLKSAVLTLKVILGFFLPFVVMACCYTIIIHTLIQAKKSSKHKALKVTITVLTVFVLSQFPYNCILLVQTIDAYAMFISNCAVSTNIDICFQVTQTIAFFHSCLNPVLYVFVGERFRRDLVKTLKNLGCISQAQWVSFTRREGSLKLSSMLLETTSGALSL
# Chain of CXCR7 (P25106 whole entry, species assumed): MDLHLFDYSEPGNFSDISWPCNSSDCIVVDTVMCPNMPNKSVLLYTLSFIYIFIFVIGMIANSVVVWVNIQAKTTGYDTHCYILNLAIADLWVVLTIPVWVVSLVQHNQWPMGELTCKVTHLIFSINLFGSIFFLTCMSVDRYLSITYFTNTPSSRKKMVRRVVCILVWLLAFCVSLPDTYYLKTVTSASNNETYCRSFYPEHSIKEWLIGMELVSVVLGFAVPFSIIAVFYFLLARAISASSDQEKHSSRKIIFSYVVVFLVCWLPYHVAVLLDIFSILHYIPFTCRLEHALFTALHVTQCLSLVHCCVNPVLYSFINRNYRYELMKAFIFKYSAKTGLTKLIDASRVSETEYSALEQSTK
smiles,measurement,setting,value
"C[N+](C)(C)CCC(=O)c1cccc2ccccc12.[I-] [α-NETA, 2-(α-naphthoyl)ethyltrimethylammonium iodide]",MOG35-55 recall proliferation and IFNγ and IL-17 production of LN and spleen cells,[1],comparable to vehicle-treated mice
same,suppression of clinical signs beyond first appearance of disease in control CCRL2 KO mice,[2]; 10 mg/kg daily s.c.,completely and significantly suppressed clinical signs for an average of four days
same,treated mice that did not develop EAE by day 20,"[2]; CCRL2 KO mice, 10 mg/kg daily s.c.",40%
same,severity of clinical disease,"[2]; CCRL2 KO mice, days 8-15 (except for day 10)",significantly reduced
same,IC50,[3],8 µM
same,IC50,[4],10 µM
same,IC50,[5],≥ 10 µM
same,inhibition of migration of CXCR5+ NC-37 cells to CXCL13,"[5]; 1, 3, and 10 µM",did not inhibit
same,IC50,[6],6.5 ± 0.7 µM
same,IC50,[7],0.58 µM
same,IC50,[8],13 µM
same,IC50,[9],≥ 10 µM
same,inhibition of migration of CXCR4+ cells to CXCL12,"[9]; 1, 3, and 10 µM",did not inhibit
same,inhibition of CXCL12-triggered β-arrestin2 association with CXCR7,[10],moderately inhibited
same,IC50,[11],≥ 10 µM
same,"IC50 (µM), Cytochrome p450 2C19",[11],Inactive ^j
same,IC50,[12],0.04 µM
same,IC50,[13],≥ 10 µM
same,inhibition of migration of CCR9+ MOLT4 cells to CCL25,"[13]; 1, 3, and 10 µM",did not inhibit
same,"IC50 (µM), Acetylcholine muscarinic M1 receptor",[14],Inactive ^k
same,IC50,[15],0.375 ± 0.042 µM
same,IC50,"[15]; IC50 (µM), β-arrestin, huCMKLR1, mean±SEM, n = 3-14 independent experiments",0.38 µM

# From article PMC4249827, “A Novel CMKLR1 Small Molecule Antagonist Suppresses CNS Autoimmune Inflammatory Disease” (PLoS ONE, 2014)
